According to patent US20100292200A1, “Methods for Modulating Apoptosis in Platelets” (The Walter and Eliza Hall Institute of Medical Research, priority 2006, published 2010):

Assays:
mouse platelets = assay: Ex vivo platelet assays, mouse platelets in culture (platelet counts, caspase immunoblotting); format: cell-based; settings: qVD.OPh 50 μM with ABT-737 1 μM
Procedure: (A) Expression of Bcl-2 family proteins in platelets. […] (C) ABT-737 triggers caspase activation in platelets. […] (F) Absence of Bak protects platelets against ABT-737.
Cell death was induced with ABT-737 (up to 5 μM, Abbott Laboratories (Oltersdorf et al., 2005 (supra)), etoposide (up to 100 μM, Pharmacia) or staurosporine (10 μM, Sigma); 50 μM qVD.OPh (Enzyme Systems) was also added in some experiments. Cell viability was determined by flow cytometry for cells that exclude propidium iodide or manual counting using a hemacytometer.
Other antibodies for immunoblotting were mouse monoclonal anti-Bcl-xL (2H12; BD), anti-Bcl-2 (clone 7; BD), anti-human Bcl-2 (Bcl-2-100), anti-actin (AC40; Sigma), anti-Bax (2D2 and 5B7; Sigma), anti-Mcl-1 (clone 22: BD); rat monoclonal anti-Mcl-1 (14C11; D Huang, unpublished), rabbit polyclonal anti-Bak (B5897: Sigma), anti-Mcl-1 (Rockland), anti-caspase-3 (585; gift of Y. Lazebnik), anti-cleaved p17 fragment of caspase-3 (AB3623; Chemicon), anti-gelsolin (gift of D Kwiatkowski) (Kothakota et al., Science, 278:294-298, 1997); hamster monoclonal anti-mouse Bcl-2 (3F11; BD). Secondary antibodies included HRP-conjugated anti-rat or anti-hamster IgG (SouthernBiotech), anti-mouse or anti-rabbit IgG (Chemicon), and anti-mouse IgG Fcγ chain specific antibody (Jackson ImmunoResearch). The proteins were detected using Enhanced ChemiLuminescence (ECL; GE Healthcare).
Platelets were counted manually in triplicate using a hemacytometer.

Mcl-1 null MEF cells = assay: Assay of Mcl-1 null MEF cells (rescue from ABT-737-induced killing, CellTitre-Blue viability); format: cell-based, mouse; settings: positive control, 25 μM final; ABT-737 20 nM final
Procedure: In summary, cells are split on day one in order to have them at a confluency of 60-80% on day two. On day two, the cells are seeded out into assay plates at a density that will ensure they are not confluent by day four of the assay. The assay plates are incubated at room temperature for 20-60 minutes before being transferred to 37° C. so that edge effects are minimized. For the same reason, assay plates are never stacked on top of each other in the incubator. On day three the cells are treated first with either Q-VD or with WEHI library compound. The cells are incubated for a 2 hour period in the presence of the library compounds and are then treated with ABT-737. […] After four hours the level of resorufin is measured.
The protocol for day one was repeated up to the point where the cells were pelleted and the supernatant aspirated off. […] The cells were vortexed and then counted using a haemocytometer. The dilution necessary to achieve a density of 2×10^4 cells ml^−1 (1000 cells per well per 50 μl media) in the required volume was calculated and the dilution performed in 1% FCS FMA. […]
CellTitre-Blue™ was warmed to 37° C. and 10 μl was then added to each well of the assay plates using the Multidrop. The plates were returned to 37° C. for 4 hours before being loaded into the EnVision plate reader. […]

[1] = tested on: primary MEFs from wild type, Bcl-x^Plt20/Plt20 or Bcl-x^Plt16/Plt16 mice; assay: Viability of primary MEFs (PI exclusion) after cell death induction; format: cell-based, mouse
Text: FIG. 3 provides a representation of data showing that the Bcl-x^Plt20 and Bcl-x^Plt16 mutations destabilize the Bcl-xL protein (A) Location of the Plt20 and Plt16 mutations on Bcl-xL. The two mutations (in blue) are mapped on the 3-dimensional structure of mouse Bcl-xL (light gray) in complex with a Bim BH3 peptide (red) (1PQ1) (Liu et al. Immunity, 19:341-352, 2003). Y15 (Plt20) is partially solvent exposed, while I182 (Plt16) is completely buried, neither contributing to the BH3 binding groove of Bcl-xL. The structural depiction was prepared using PyMOL (DeLano, W. L. 2002 The PyMOL Molecular Graphics System; http://www.pymol.org). (B) The mutant proteins encoded by the Plt20 and Plt16 alleles of Bcl-x can still bind Bax and Bak. […] Data shown is representative of at least 2 cell lines of each genotype analyzed. […] The viability (determined by PI exclusion) of representative primary MEFs derived from wild type, Bcl-x^Plt20/Plt20 or Bcl-x^Plt16/Plt16 mice after exposure to 50 μg/mL cycloheximide for 0-30 h. […]
FIG. 8 is a graphical representation of data showing the sensitivity of cell lines derived from Bcl-x mutant mice to apoptosis. […] Viability was determined by PI uptake; data represent means±SD of representative cell lines. \-<1% viability. […]

With `CC(C)[C@H](NC(=O)c1ccc2ccccc2n1)C(=O)N[C@@H](CC(=O)O)C(=O)COc1c(F)cccc1F` [qVD.OPh] the “effect of qVD.OPh on ABT-737-induced caspase-3 activation and gelsolin cleavage” value (mouse platelets) was “partially blocked”, the “effect of qVD.OPh on the cytotoxic effect of ABT-737 on mouse platelets in culture” value (mouse platelets; counted after 1 h) was “partially ameliorated” and the “rescue of Mcl-1^(-/-) cells from ABT-737-induced apoptosis” value (Mcl-1 null MEF cells) was “can be rescued”.
For `CN[C@@H]1C[C@H]2O[C@@](C)([C@@H]1OC)n1c3ccccc3c3c4c(c5c6ccccc6n2c5c31)C(=O)NC4` [staurosporine], the “sensitivity of wild-type, Bcl-x^Plt20/Plt20 or Bcl-x^Plt16/Plt16 MEFs to staurosporine” value ([1]; staurosporine 10 μM, PI uptake) was “equally sensitive”.
`C[C@@H]1C[C@@H]([C@H](O)CC2CC(=O)NC(=O)C2)C(=O)[C@@H](C)C1` [cycloheximide] was tested, and the “viability of Bcl-x^Plt20 or Bcl-x^Plt16 MEFs after protein synthesis inhibition” value ([1]; 50 μg/mL cycloheximide for 0-30 h, PI exclusion) was “susceptible”.
